According to ChEMBL document CHEMBL1201862, “PubChem BioAssay data set” (2004):
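Grown in 96-well plates, cells were treated for 48 hours with each compound at five concentrations. Insufficient inhibition: endpoint recorded as highest concentration tested. Abbreviation: GI50, concentration required for 50% inhibition of growth.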 Calls of active or inactive are those of the source. Cut-off read from the data, not from the text of the source: active = GI50 up to about 1.1 µM and inactive = higher.

Experiments:
Assay in all cases: DTP human tumour cell line panel, 48 h
[1] = test system: DLD-1
[2] = test system: HOP-18
[3] = test system: KM-20L2
[4] = test system: LXFL 529
[5] = test system: M19-MEL
[6] = test system: RXF 631
[7] = test system: SNB-78
[8] = test system: XF498
[9] = test system: DMS-273

Row | Compound | GI50 [1] | GI50 [2] | GI50 [3] | GI50 [4] | GI50 [5] | GI50 [6] | GI50 [7] | GI50 [8] | GI50 [9]
1 | Cc1ncc(CCl)c2c1OC(C)(C)OC2 | 50.9 µM (inactive) | 21.1 µM (inactive) | > 100 µM (inactive) | > 100 µM (inactive) | 74 µM (inactive) | 30 µM (inactive) | 39.7 µM (inactive) | 78.2 µM (inactive) | –
2 | Cn1sc2ccccc2c1=S | 3.07 µM (inactive) | 11.2 µM (inactive) | 13.7 µM (inactive) | 14 µM (inactive) | 4.59 µM (inactive) | – | 15 µM (inactive) | 11.9 µM (inactive) | 5.64 µM (inactive)
3 | COc1ccc(C(=O)c2c(C(C(=O)c3ccc(OC)cc3)C(=O)c3ccc(OC)cc3)n(C(=O)c3ccc(OC)cc3)c3ccccc23)cc1 | > 100 µM (inactive) | – | > 100 µM (inactive) | > 100 µM (inactive) | > 100 µM (inactive) | – | > 100 µM (inactive) | > 100 µM (inactive) | > 100 µM (inactive)
4 | CCCCOC(=O)NC(=O)c1cn(CCCOC(=O)CCCCCCCCC(=O)OCCCn2cc(C(=O)NC(=O)OCCCC)c(=O)n(C)c2=O)c(=O)n(C)c1=O | > 100 µM (inactive) | – | > 100 µM (inactive) | > 100 µM (inactive) | > 100 µM (inactive) | > 100 µM (inactive) | > 100 µM (inactive) | > 100 µM (inactive) | > 100 µM (inactive)
5 | N=C(N)NCCCC(NCc1c2ccccc2[n+]([O-])c2ccccc12)C(=O)O (configuration not stated) | 38.8 µM (inactive) | > 100 µM (inactive) | 42.9 µM (inactive) | 32.7 µM (inactive) | – | 59.8 µM (inactive) | 66.7 µM (inactive) | – | 40.4 µM (inactive)
6 | CC(C)=CCC/C(C)=C/Cc1c(O)ccc2c1[nH]c1cc(O)c(C)cc12 | 14.1 µM (inactive) | – | 13.4 µM (inactive) | 10.1 µM (inactive) | 15.5 µM (inactive) | – | > 25 µM (inactive) | 24.7 µM (inactive) | 11 µM (inactive)
7 | Cc1cc(NS(=O)(=O)c2ccc(NC(=O)c3cccn4c(=O)c5ccccc5nc34)cc2)no1 | > 100 µM (inactive) | > 100 µM (inactive) | > 100 µM (inactive) | > 100 µM (inactive) | > 100 µM (inactive) | > 100 µM (inactive) | > 100 µM (inactive) | > 100 µM (inactive) | > 100 µM (inactive)
8 | COc1cc(O)c(C(=O)C2Cc3ccccc32)c(OC)c1 (configuration not stated) | 46.2 µM (inactive) | 34.4 µM (inactive) | 65.3 µM (inactive) | 34 µM (inactive) | – | 86.9 µM (inactive) | > 100 µM (inactive) | – | 43.4 µM (inactive)
9 | Cc1cc(=O)oc2c(C3=NN(C=O)C(c4ccccc4)C3)c(O)ccc12 (configuration not stated) | > 100 µM (inactive) | > 100 µM (inactive) | > 100 µM (inactive) | > 100 µM (inactive) | > 100 µM (inactive) | 25.2 µM (inactive) | 24.3 µM (inactive) | 18.7 µM (inactive) | > 100 µM (inactive)
10 | CC/C=C/c1cc2c(c3[nH]ccc13)[C@@H](C)CC2C.CC/C=C/c1cc2cc[nH]c2c2c1C(C)C[C@@H]2C.CCc1cc2c(c3[nH]ccc13)[C@@H](C)CC2C (some centres not stated) | 13.5 µM (inactive) | 13.5 µM (inactive) | 14.8 µM (inactive) | 16.4 µM (inactive) | 18.3 µM (inactive) | – | 17.2 µM (inactive) | – | 15.4 µM (inactive)
11 | CCN(CCO)CCNc1ccc(C)c2sc3ccccc3c(=O)c12 | 3.83 µM (inactive) | 11.9 µM (inactive) | 2.59 µM (inactive) | 2.77 µM (inactive) | 2 µM (inactive) | – | 7.05 µM (inactive) | 3.31 µM (inactive) | 2.36 µM (inactive)
12 | CCOC(=O)C(C)Sc1nnc(COc2ccccc2OC)n1-c1ccccc1 (configuration not stated) | 37.2 µM (inactive) | 77.4 µM (inactive) | > 100 µM (inactive) | 28.8 µM (inactive) | > 100 µM (inactive) | – | > 100 µM (inactive) | – | > 100 µM (inactive)
13 | O=C1OC(CC(=O)c2ccc(Cl)c(Cl)c2)C(Cl)=C1Cl (configuration not stated) | > 100 µM (inactive) | > 100 µM (inactive) | > 100 µM (inactive) | 58.6 µM (inactive) | > 100 µM (inactive) | > 100 µM (inactive) | – | 64 µM (inactive) | > 100 µM (inactive)
14 | O=c1[nH]c(=O)n(C2OC(CO)C(O)C2O)cc1/N=N/NCc1ccccc1 (configuration not stated) | > 60.1 µM (inactive) | > 100 µM (inactive) | > 100 µM (inactive) | 98.2 µM (inactive) | > 100 µM (inactive) | > 100 µM (inactive) | > 100 µM (inactive) | > 100 µM (inactive) | > 71.6 µM (inactive)
15 | CCOC(OCC)(OCC)C(Br)CC (configuration not stated) | 22 µM (inactive) | > 100 µM (inactive) | 11.8 µM (inactive) | 51.9 µM (inactive) | > 100 µM (inactive) | > 100 µM (inactive) | > 100 µM (inactive) | > 100 µM (inactive) | 19.1 µM (inactive)
16 | CCCCCCCC(=O)OCC1OC(n2cc(F)c(=O)[nH]c2=O)C(N)C(OC(=O)CCCCCCC)C1O (configuration not stated) | – | – | 18.9 µM (inactive) | 17.1 µM (inactive) | 20.2 µM (inactive) | – | 20 µM (inactive) | – | 16.6 µM (inactive)
17 | CCCNC(=O)c1cc2ccccc2cc1C(=O)OC | > 100 µM (inactive) | > 100 µM (inactive) | > 100 µM (inactive) | > 100 µM (inactive) | > 100 µM (inactive) | > 100 µM (inactive) | > 100 µM (inactive) | > 100 µM (inactive) | > 100 µM (inactive)
18 | CC(=O)OCc1ncccc1C(OC(C)=O)OC(C)=O | > 100 µM (inactive) | > 100 µM (inactive) | > 100 µM (inactive) | > 100 µM (inactive) | > 100 µM (inactive) | – | > 100 µM (inactive) | > 100 µM (inactive) | > 100 µM (inactive)
19 | CCOc1ccc(OCC(=O)O)c2c1CCCC2=O | > 100 µM (inactive) | – | – | > 100 µM (inactive) | > 100 µM (inactive) | > 100 µM (inactive) | > 100 µM (inactive) | > 100 µM (inactive) | > 100 µM (inactive)
20 | CCN(CC)C1CC(O[C@H]2C[C@](O)(C(=O)CO)Cc3c(O)c4c(c(O)c32)C(=O)c2c(OC)cccc2C4=O)OC(C)C1O (some centres not stated) | 0.0395 µM (active) | – | 0.0733 µM (active) | 0.0458 µM (active) | 0.0484 µM (active) | 0.0655 µM (active) | 0.08 µM (active) | 0.0752 µM (active) | < 0.0215 µM (active)
21 | Cc1nc(-c2ccccc2)cc2c1c(=O)oc1ccccc12 | > 100 µM (inactive) | > 100 µM (inactive) | > 100 µM (inactive) | > 100 µM (inactive) | – | > 100 µM (inactive) | > 100 µM (inactive) | – | > 100 µM (inactive)
22 | CCN(CC)CCCC(C)Nc1c2cc(OC)cc(C)c2nc2c(C)c(Cl)ccc12 (configuration not stated) | 1.53 µM (inactive) | 1.56 µM (inactive) | 1.86 µM (inactive) | 1.58 µM (inactive) | 1.75 µM (inactive) | 1.79 µM (inactive) | 2.14 µM (inactive) | – | 1.71 µM (inactive)
23 | CN(C)CCN1CCc2c([nH]c3ccccc23)C1c1cccnc1 (configuration not stated) | > 100 µM (inactive) | > 100 µM (inactive) | > 100 µM (inactive) | – | > 100 µM (inactive) | – | > 100 µM (inactive) | – | > 100 µM (inactive)
24 | CCN(CC)CCOC(c1ccccc1)c1ccccc1.CCOC(=O)Nc1ccc(S(=O)(=O)OC)cc1.CCOC(=O)Nc1ccc(S(=O)(=O)OC)cc1.Nc1ccc(C(=O)O)c(O)c1 | > 100 µM (inactive) | > 100 µM (inactive) | > 100 µM (inactive) | > 100 µM (inactive) | > 100 µM (inactive) | > 100 µM (inactive) | > 100 µM (inactive) | – | –
25 | CC1CCC2[C@@H](C)COC3O[C@]4(C)CCC1C32OO4 (some centres not stated) | > 100 µM (inactive) | > 100 µM (inactive) | > 100 µM (inactive) | 77.1 µM (inactive) | – | – | > 100 µM (inactive) | – | > 100 µM (inactive)
26 | COc1ccc2cc3n(c(=O)c2c1)CCc1c-3cc(OC)c(OC)c1OC | > 100 µM (inactive) | > 100 µM (inactive) | > 100 µM (inactive) | > 100 µM (inactive) | > 100 µM (inactive) | – | > 100 µM (inactive) | 50.7 µM (inactive) | > 100 µM (inactive)
